Reference: ChEMBL document CHEMBL3286220, “2,4-Bis(4-hydroxybenzyl)phenol inhibits heat shock transcription factor 1 and sensitizes lung cancer cells to conventional anticancer modalities” (J Nat Prod, 2014)
Positions count from the first letter of the chain named. Calls of active or inactive are those of the source. No cut-off for these calls is given here.

Key:
[1] = molecular target: T1, Heat shock factor protein 1 (Homo sapiens) (UniProt Q00613); assay: Inhibition of HSP1 activity in human NCI-H460 cells assessed as reduction of HSP27 mRNA expression at 20 uM up to 24 hrs by qRT-PCR analysis; assay type: cell-based
T1 sequence (whole entry): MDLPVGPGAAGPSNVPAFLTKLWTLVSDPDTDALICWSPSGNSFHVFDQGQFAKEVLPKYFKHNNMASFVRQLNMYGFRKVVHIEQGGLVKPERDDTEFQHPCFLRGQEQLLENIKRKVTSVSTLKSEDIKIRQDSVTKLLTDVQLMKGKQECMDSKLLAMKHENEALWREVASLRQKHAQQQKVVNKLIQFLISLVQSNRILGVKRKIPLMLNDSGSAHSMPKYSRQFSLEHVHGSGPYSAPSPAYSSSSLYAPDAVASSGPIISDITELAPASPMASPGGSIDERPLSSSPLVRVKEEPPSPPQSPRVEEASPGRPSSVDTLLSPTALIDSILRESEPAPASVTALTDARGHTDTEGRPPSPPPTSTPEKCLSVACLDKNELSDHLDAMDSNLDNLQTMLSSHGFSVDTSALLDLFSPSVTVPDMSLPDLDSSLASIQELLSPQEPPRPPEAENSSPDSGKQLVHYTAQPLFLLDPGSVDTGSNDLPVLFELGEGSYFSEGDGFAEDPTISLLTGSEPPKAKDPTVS

[2] = molecular target: T1, Heat shock factor protein 1 (Homo sapiens); assay: Inhibition of HSP1 activity in human NCI-H460 cells assessed as reduction of HSP1 protein expression after 12 hrs by Western blot analysis; assay type: cell-based
NCI-H460 [3] = assay: Induction of apoptosis in human NCI-H460 cells expressing siHSF1 assessed as cleaved PARP and caspase 3 level up to 20 uM after 12 hrs; assay type: functional, cell-based
NCI-H460 [4] = assay: Induction of apoptosis in human NCI-H460 cells assessed as cleaved PARP and caspase 3 level at 20 uM; assay type: functional, cell-based; conditions: TDE = time-dependent effect
[5] = molecular target: T1, Heat shock factor protein 1 (Homo sapiens); assay: Inhibition of HSP1 activity in human NCI-H460 cells assessed as reduction of HSP25 protein expression at 20 uM by Western blot analysis; assay type: cell-based; conditions: TDE = time-dependent effect
[6] = molecular target: T1, Heat shock factor protein 1 (Homo sapiens); assay: Inhibition of HSP1 activity in human NCI-H460 cells assessed as reduction of HSP70 mRNA expression at 20 uM up to 24 hrs by qRT-PCR analysis; assay type: cell-based
[7] = molecular target: T1, Heat shock factor protein 1 (Homo sapiens); assay: Reduction of HSP1 stability in human NCI-H460 cells assessed as protein degradation at 10 uM up to 9 hrs by Western blot analysis in presence of cyclohexamide; assay type: cell-based
[8] = molecular target: T2, Heat shock factor protein 1 (Mus musculus) (UniProt P38532); assay: Inhibition of HSP1 activity in mouse MEF assessed as reduction of hsp70 promoter activity at 5 to 100 uM after 12 hrs by luciferase reporter gene assay
T2 sequence (whole entry): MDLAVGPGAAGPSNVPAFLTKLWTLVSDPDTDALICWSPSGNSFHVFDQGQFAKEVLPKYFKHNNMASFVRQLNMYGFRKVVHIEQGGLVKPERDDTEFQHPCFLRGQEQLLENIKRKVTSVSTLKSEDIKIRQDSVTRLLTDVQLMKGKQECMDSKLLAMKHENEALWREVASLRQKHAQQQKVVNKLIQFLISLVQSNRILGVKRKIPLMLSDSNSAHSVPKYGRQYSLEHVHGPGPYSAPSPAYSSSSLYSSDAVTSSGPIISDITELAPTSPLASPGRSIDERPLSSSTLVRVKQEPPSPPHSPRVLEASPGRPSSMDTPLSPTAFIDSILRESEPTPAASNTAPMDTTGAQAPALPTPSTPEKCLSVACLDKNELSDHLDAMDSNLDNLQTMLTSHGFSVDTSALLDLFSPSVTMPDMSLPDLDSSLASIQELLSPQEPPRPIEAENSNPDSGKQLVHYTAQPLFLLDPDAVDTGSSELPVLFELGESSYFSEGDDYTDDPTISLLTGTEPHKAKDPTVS

NCI-H460 [9] = assay: Induction of apoptosis in human NCI-H460 cells assessed as cyclin D and cyclin E level after 12 hrs; assay type: functional, cell-based
NCI-H460 [10] = assay: Cytotoxicity against human NCI-H460 cells expressing siHSF1 up to 100 uM after 24 hrs by MTT assay; assay type: functional, cell-based
[11] = molecular target: T1, Heat shock factor protein 1 (Homo sapiens); assay: Inhibition of HSP1 activity in human NCI-H460 cells assessed as reduction of HSP1 mRNA expression at 20 uM up to 24 hrs by qRT-PCR analysis; assay type: cell-based
NCI-H460 [12] = assay: Induction of apoptosis in human NCI-H460 cells assessed as cleaved PARP and caspase 3 level after 12 hrs; assay type: functional, cell-based
[13] = tested on: T3, Heat shock factor protein 1 (Homo sapiens), Q00613 [S326E]; assay: Reduction of HSP1 phosphorylated at S326E mutant stability in human NCI-H460 cells up to 7.5 hrs by Western blot analysis in presence of cyclohexamide; assay type: cell-based
T3 sequence (whole entry): T1 sequence (whole entry) with S326E

[14] = molecular target: T1, Heat shock factor protein 1 (Homo sapiens); assay: Inhibition of HSP1 activity in human NCI-H460 cells assessed as reduction of HSP70 protein expression after 12 hrs by Western blot analysis; assay type: cell-based
[15] = molecular target: T1, Heat shock factor protein 1 (Homo sapiens); assay: Inhibition of HSP1 activity in human NCI-H460 cells assessed as reduction of hsp70 promoter activity after 12 hrs by luciferase reporter gene assay; assay type: cell-based
[16] = molecular target: T1, Heat shock factor protein 1 (Homo sapiens); assay: Inhibition of HSP1 activity in human NCI-H460 cells assessed as reduction of HSP1 protein expression at 20 uM by Western blot analysis; assay type: cell-based; conditions: TDE = time-dependent effect
[17] = molecular target: T1, Heat shock factor protein 1 (Homo sapiens); assay: Inhibition of HSP1 activity in human NCI-H460 cells assessed as reduction of HSP1 mRNA expression at 1 to 20 uM after 12 hrs by qRT-PCR analysis; assay type: cell-based
[18] = molecular target: T1, Heat shock factor protein 1 (Homo sapiens); assay: Inhibition of HSP1 activity in human NCI-H460 cells assessed as reduction of HSP27 mRNA expression at 1 to 20 uM after 12 hrs by qRT-PCR analysis; assay type: cell-based
NCI-H460 [19] = assay: Induction of apoptosis in human NCI-H460 cells assessed as cyclin D and cyclin E level at 20 uM; assay type: functional, cell-based; conditions: TDE = time-dependent effect
NCI-H460 [20] = assay: Cytotoxicity against human NCI-H460 cells up to 100 uM after 24 hrs by MTT assay; assay type: functional, cell-based
[21] = molecular target: T1, Heat shock factor protein 1 (Homo sapiens); assay: Inhibition of HSP1 activity in human NCI-H460 cells assessed as reduction of hsp25 promoter activity after 12 hrs by luciferase reporter gene assay; assay type: cell-based
[22] = molecular target: T1, Heat shock factor protein 1 (Homo sapiens); assay: Inhibition of HSP1 activity in human NCI-H460 cells assessed as reduction of HSP25 protein expression after 12 hrs by Western blot analysis; assay type: cell-based
[23] = tested on: T4, Heat shock factor protein 1 (Homo sapiens), Q00613 [S326A]; assay: Reduction of HSP1 dephosphorylated at S326A mutant stability in human NCI-H460 cells up to 7.5 hrs by Western blot analysis in presence of cyclohexamide; assay type: cell-based
T4 sequence (whole entry): T1 sequence (whole entry) with S326A

NCI-H460 [24] = assay: Cytotoxicity against HSF1 deficient human NCI-H460 cells up to 100 uM after 24 hrs by MTT assay; assay type: functional, cell-based
[25] = molecular target: T1, Heat shock factor protein 1 (Homo sapiens); assay: Inhibition of HSP1 activity in human NCI-H460 cells assessed as reduction of HSP70 mRNA expression at 1 to 20 uM after 12 hrs by qRT-PCR analysis; assay type: cell-based
[26] = molecular target: T1, Heat shock factor protein 1 (Homo sapiens); assay: Inhibition of HSP1 activity in human NCI-H460 cells assessed as reduction of HSP70 protein expression at 20 uM by Western blot analysis; assay type: cell-based; conditions: TDE = time-dependent effect
[27] = molecular target: T2, Heat shock factor protein 1 (Mus musculus); assay: Inhibition of HSP1 activity in mouse MEF assessed as reduction of hsp25 promoter activity at 5 to 100 uM after 12 hrs by luciferase reporter gene assay
[28] = molecular target: T1, Heat shock factor protein 1 (Homo sapiens); assay: Induction of HSP1 dephosphorylation at S230, S303/307, and S326 in human NCI-H460 cells after 24 hrs by Western blot analysis; assay type: cell-based
[29] = molecular target: T1, Heat shock factor protein 1 (Homo sapiens); assay: Reduction of HSP1 stability in human NCI-H460 cells assessed as protein degradation at 10 ug/mL up to 9 hrs by Western blot analysis; assay type: cell-based

Q: Which results are given for `Oc1ccc(Cc2ccc(O)c(Cc3ccc(O)cc3)c2)cc1`?
A: inhibition [1]: Active; inhibition [2]: Dose-dependent effect; Activity (NCI-H460 [3]): Active; Activity (NCI-H460 [4]): tde; inhibition [5]: tde; inhibition [6]: Active; Activity [7]: Active; inhibition [8]: inactive; Activity (NCI-H460 [9]): Dose-dependent effect; Activity (NCI-H460 [10]): inactive; inhibition [11]: inactive; Activity (NCI-H460 [12]): Dose-dependent effect; Activity [13]: Active; inhibition [14]: Dose-dependent effect; inhibition [15]: Dose-dependent effect; inhibition [16]: tde; inhibition [17]: inactive; inhibition [18]: Active; Activity (NCI-H460 [19]): tde; Activity (NCI-H460 [20]): Active; inhibition [21]: Dose-dependent effect; inhibition [22]: Dose-dependent effect; Activity [23]: Active; Activity (NCI-H460 [24]): Active; inhibition [25]: Active; inhibition [26]: tde; inhibition [27]: inactive; Activity [28]: Dose-dependent effect

Q: `C[C@@H]1C[C@@H]([C@H](O)CC2CC(=O)NC(=O)C2)C(=O)[C@@H](C)C1` was tested. Which Activity [29] did it give?
A: Active
